Data published in patent publication US20050025830A1, “Drug delivery device comprising an active compound and method for releasing an active compound from a drug delivery device” (Technische Universiteit Eindhoven, priority 2003, published 2005).

Tests used:
[1] = Concentration of ibuprofen in blood after subcutaneous implantation of disc and alternating ultrasound irradiation; assay type: in vivo; details: p(BMA-MMA) disc, ibuprofen 3% (m/m), Lewis rat
Excerpt: A pressed circular disc of p(BMA-MMA) with ibuprofen incorporated in the matrix with a mass ratio of 3% (m/m), as described in example 1, was implanted subcutaneously in a Lewis rat. On both sides of the disc a thermocouple was implanted to continuously measure the temperature at the surface of the disc. One hour after implantation the disc was irradiated perpendicularly to the surface with a beam of ultrasonic sound with a power of 0.7 W, a frequency of 10^6 Hz (1 MHz), and a duty cycle of 70%, the probe for generating the ultrasound touching the skin of the rat. A standard physiotherapeutic hydrogel was used in between the skin and the probe. The irradiation with ultrasonic sound was applied in an alternating manner, periods of irradiation of 30 minutes being alternated with periods of 30 minutes without irradiation.
Blood samples were taken each 10 minutes during irradiation and each 20 minutes in the periods without irradiation to determine concentration of ibuprofen in the blood stream as a function of time. After 30 minutes irradiation the concentration of ibuprofen was 0.9 μg/ml, after irradiation the plasma concentration went below 0.01 μg/ml.

[2] = Release of active compound from pressed polymer disc into physiological buffer in shaking bath at 20° C. and 50° C.; assay type: physicochemical; details: p(BMA-MMA) disc with 75 mol % pBMA, ibuprofen 5% (m/m)
[3] = Ultrasound-induced release of ibuprofen from polymer disc into physiological buffer; assay type: physicochemical; details: PLAGA 50/50 disc, ibuprofen 10% (m/m)
Experimental: An object consisting of a pressed circular disc with a diameter of 2 cm and thickness of 2 mm was provided with a thermocouple in the middle and was then placed in a holder in a vessel containing 0.5 litre physiological buffer. […] The PLAGA was purchased from Purac Biochem, The Netherlands. The glass transition temperature of the matrix of poly(lactic acid-co-glycolic acid) used was 12.7° C. (as compared to Example 1 where a Tg of 43° C. is disclosed. This decrease of the Tg is the result of a higher loading of ibuprofen). The disc was irradiated perpendicularly to the surface with a beam of ultrasonic sound with a power of 4 W and a frequency of 10^6 Hz (1 MHz), the probe for generating the ultrasound being 28 mm away from the disc. The speed of the release of ibuprofen into the physiological buffer was determined as a function of time. Both the temperature of the buffer and the temperature in the disc were measured continuously. The irradiation with ultrasonic sound was applied in an alternating manner, periods of irradiation of 120 minutes being alternated with periods of 60 minutes without irradiation.

plasma concentration of ibuprofen ([1]; after irradiation (period without irradiation)): below 0.01 μg/ml
concentration at 30 min ([1]; blood, sc, after 30 minutes irradiation (0.7 W, 1 MHz, duty cycle 70%), read-out: concentration of ibuprofen in the blood stream): 900 ng/mL
release rate of ibuprofen into the physiological buffer ([2]; 20° C.): 0.36 nmol/h
release rate of ibuprofen into the physiological buffer ([2]; 50° C.): 10 nmol/h
speed of release of ibuprofen from the disc ([3]; without irradiation (base value), 8° C.): less than 1×10^−7 gram/minute
Compound: CC(C)Cc1ccc(C(C)C(=O)O)cc1 (stereo not drawn) [ibuprofen]
release of ibuprofen after stopping the irradiation [3]: fell virtually immediately to the base value
